Results from article PMC11258623 (ESMO Open, 2024).

Experiments:
CYP3A4 = details: overlapping elimination mechanisms; cited from earlier work
[1] = tested on: patients with advanced solid tumors; format: in vivo, human
[2] = Paclitaxel plasma pharmacokinetics; format: in vivo, human; details: paclitaxel 60 mg/m^2; with daily oral TAK-659
[3] = TAK-659 plasma pharmacokinetics; format: in vivo, human; details: for AUC0-t increase from day 1 to day 15 / clearance decrease from day 1 to day 15: with paclitaxel
[4] = tested on: patients with acute myeloid leukemia (AML); details: TAK-659 monotherapy, doses of up to 160 mg daily; cited from earlier work

| SMILES | substrate for CYP3A4, a major drug metabolizing enzyme (CYP3A4) | patients with paclitaxel dose reduced ([1]; Nine of 49 patients, given with TAK-659) | increase in exposure (AUC), cycle 1 day 15 compared with cycle 1 day 1 [2] | reduction in clearance, cycle 1 day 15 compared with cycle 1 day 1 [2] | patients with dose of TAK-659 reduced ([1]; Six of 49 patients, given with paclitaxel) | recommended phase II dose of TAK-659 ([1]; oral, combined with paclitaxel) | patients who needed a second dose reduction of TAK-659 ([1]; two of 49 patients, given with paclitaxel) | increase in terminal elimination half-life from day 1 to day 15 ([3]; 60-mg dosing cohort, not statistically significant (P = 0.1650)) | AUC0-t increase from day 1 to day 15 ([3]; 60-mg dosing group) | clearance decrease from day 1 to day 15 ([3]; 60-mg dosing group) | AUC0-t increase from day 1 to day 15 ([3]; 80-mg dosing group) | clearance decrease from day 1 to day 15 ([3]; 80-mg dosing group) | AUC0-t increase from day 1 to day 15 ([3]; 100-mg dosing group) | clearance decrease from day 1 to day 15 ([3]; 100-mg dosing group) | MTD [4] |
| --- | --- | --- | --- | --- | --- | --- | --- | --- | --- | --- | --- | --- | --- | --- | --- |
| CC(=O)O[C@H]1C(=O)[C@@]2(C)[C@H]([C@H](OC(=O)c3ccccc3)[C@]3(O)C[C@H](OC(=O)[C@H](O)[C@@H](NC(=O)c4ccccc4)c4ccccc4)C(C)=C1C3(C)C)[C@]1(OC(C)=O)CO[C@@H]1C[C@@H]2O [Paclitaxel, paclitaxel, reference compound] | substrates | 18% | ~28% | ~20% |  |  |  |  |  |  |  |  |  |  |  |
| Cn1cc(-c2nc(N[C@@H]3CCCC[C@@H]3N)c(F)c3c2C(=O)NC3)cn1 [TAK-659, mivavotinib] | substrates |  |  |  | 12% | 80 mg daily | 4% | 41% | 40% | 36% | 66% | 31% | 91% | 46% | not reached |
